Reference: ChEMBL document CHEMBL1148596, “Discovery of nonpeptidic small-molecule AP-1 inhibitors: lead hopping based on a three-dimensional pharmacophore model” (J Med Chem, 2006)

Key:
[1] = biological target: T1, Transcription factor AP1 (Homo sapiens, UniProt P01100+P05412); experiment: (§1) Inhibitory activity on AP1 using ELISA based AP1 DNA binding; type: protein-complex assay
[2] = biological target: T2, Transcription factor AP1 (Homo sapiens, UniProt P05412+P01100); experiment: Inhibitory activity on AP1 DNA-binding at 500 uM; type: protein-complex assay
T2 sequence (P05412 whole entry): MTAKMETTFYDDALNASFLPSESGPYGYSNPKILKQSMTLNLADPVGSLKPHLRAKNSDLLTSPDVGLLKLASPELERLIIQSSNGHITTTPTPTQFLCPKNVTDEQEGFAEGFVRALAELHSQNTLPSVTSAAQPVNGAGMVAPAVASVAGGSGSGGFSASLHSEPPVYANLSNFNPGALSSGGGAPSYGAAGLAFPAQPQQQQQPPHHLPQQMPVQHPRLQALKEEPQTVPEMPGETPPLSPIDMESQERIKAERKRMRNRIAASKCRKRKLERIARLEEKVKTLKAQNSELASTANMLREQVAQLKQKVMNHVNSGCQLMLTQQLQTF
T2 sequence (P01100 whole entry): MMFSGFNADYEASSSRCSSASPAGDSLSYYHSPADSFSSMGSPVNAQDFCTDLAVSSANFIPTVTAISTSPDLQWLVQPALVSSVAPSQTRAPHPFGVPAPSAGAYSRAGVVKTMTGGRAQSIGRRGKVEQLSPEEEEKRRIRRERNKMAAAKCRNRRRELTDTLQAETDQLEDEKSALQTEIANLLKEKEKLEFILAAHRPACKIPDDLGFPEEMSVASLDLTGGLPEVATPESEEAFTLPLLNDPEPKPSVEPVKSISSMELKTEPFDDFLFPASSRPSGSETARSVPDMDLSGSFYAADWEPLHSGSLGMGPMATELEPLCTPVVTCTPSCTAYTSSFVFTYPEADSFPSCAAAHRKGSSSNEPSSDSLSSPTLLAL

[3] = biological target: T2, Transcription factor AP1; experiment: Inhibitory activity on AP1 DNA-binding at 1 mM; type: protein-complex assay
[4] = biological target: T2, Transcription factor AP1; experiment: as §1; type: protein-complex assay
[5] = biological target: T2, Transcription factor AP1; experiment: (§2) Inhibition of the expression of AP1-luciferase by TPA-stimulated NIH3T3 cells; type: cell-based; conditions: nih3t3
[6] = biological target: T1, Transcription factor AP1; experiment: as §2; type: cell-based

T1 sequence (P05412 whole entry): as the sequence (P05412 whole entry) above
T1 sequence (P01100 whole entry): as the sequence (P01100 whole entry) above

SMILES	IC50 [1]	inhibition [2]	inhibition [3]	IC50 [4]	IC50 [5]	IC50 [6]
CCCOc1ccc(C(=O)c2ccc(OCC(C)C)cc2)cc1CCC(=O)O	910 µM	26%	55%	–	–	–
CC(C)COc1ccc(C(=O)c2ccc(OCC(C)C)c(CCC(N)=O)c2)cc1	–	5%	–	–	–	–
CC(C)COc1ccc(C(=O)c2ccc(OCc3ccccc3)c(CCC(=O)O)c2)cc1	420 µM	51%	97%	–	–	–
CC(C)CCC=C1CCC2(CC1)SC[C@@H](C(=O)O)N2C(=O)CCC(C)C (stereo partly drawn)	–	–	–	650 µM	11.8 µM	–
CC(C)COc1ccc(C(=O)c2cccc(CCC(=O)O)c2)cc1	> 2000 µM	10%	14%	–	–	–
CC(C)COc1cccc(C(=O)c2ccc(OCC(C)C)c(CCC(=O)O)c2)c1	600 µM	–	–	–	–	5.8 µM

Further lines, results first:

IC50 [1]	inhibition [2]	inhibition [3]	IC50 [4]	IC50 [5]	IC50 [6]	SMILES
–	3%	–	–	–	–	CC(C)COc1ccc(C(=O)c2ccc(OCC(C)C)cc2)cc1
930 µM	25%	42%	–	–	–	CCCOc1ccc(C(=O)c2ccc(OCC(C)C)c(CCC(=O)O)c2)cc1
> 2000 µM	7%	9%	–	–	–	CC(C)COc1ccc(C(=O)c2ccccc2)cc1CCC(=O)O
–	45%	–	–	–	–	CC(C)COc1ccc(C(=O)c2ccc(OCc3ccccc3)cc2)cc1CCC(=O)O
610 µM	28%	91%	–	–	5 µM	CC(C)COc1ccc(C(=O)c2ccc(OCC(C)C)c(CCC(=O)O)c2)cc1
–	–	–	460 µM	13.3 µM	–	CC(C)CC=C1CCC2(CC1)SC[C@@H](C(=O)O)N2C(=O)CCCC(C)C (stereo partly drawn)
